From patent US20070232698A1, “Slimming Skin External Preparation and Cosmetic Containing the Same” (priority 2004, published 2007)
Where a name gives a salt, the structure may show the parent alone.

Test system: Mouse 3T3-F442A cells
Experiment: Triglyceride accumulation in adipocytes with base acylcarnitine plus test substance (oil red staining)
Assay type: cell-based
Details: 4 days, control = base alone; for accumulated triglyceride amount relative to the control (100%), Base Hexadecanoyl-L-carnitine hydrochloride: base hexadecanoyl-L-carnitine hydrochloride plus 50 μM test substance (ginkgo biloba extract 30 μg/ml; garcinia extract as hydroxycitric acid); for accumulated triglyceride amount relative to the control (100%), Base Octadecanoyl-L-carnitine hydrochloride: base octadecanoyl-L-carnitine hydrochloride plus 50 μM test substance (ginkgo biloba extract 30 μg/ml; garcinia extract as hydroxycitric acid)
Method: The incubation was continued for another 4 days. The control was incubated using a culture medium that contained the base alone (no test substances). After the 4-days incubation, the cells were washed three times with Dulbecco's PBS (−). The triglyceride amount accumulated in the cells was quantitatively determined by oil red staining. […] Mouse 3T3-F442A cells were incubated as described in Example 10, and differentiation into adipocytes was observed. […] The incubation was continued for another 4 days. The control was incubated using a culture medium that contained the base alone (no test substances). After the 4-days incubation, the cells were washed three times with Dulbecco's PBS (−). The triglyceride amount accumulated in the cells was quantitatively determined by oil red staining.

## Cc1c(C)c2c(c(C)c1OP(=O)([O-])[O-])CCC(C)(CCCC(C)CCCC(C)CCCC(C)C)O2.[Na+].[Na+] (racemic) [dl-α-Tocopherol phosphate sodium salt]
  accumulated triglyceride amount relative to the control (100%), Base Hexadecanoyl-L-carnitine hydrochloride: 100%
  accumulated triglyceride amount relative to the control (100%), Base Octadecanoyl-L-carnitine hydrochloride: 102%

## Cc1c(C)c2c(c(C)c1OC(=O)CN(C)C)CCC(C)(CCCC(C)CCCC(C)CCCC(C)C)O2.Cl (racemic) [dl-α-Tocopherol-N,N-dimethylglycine ester hydrochloride]
  accumulated triglyceride amount relative to the control (100%), Base Hexadecanoyl-L-carnitine hydrochloride: 98%
  accumulated triglyceride amount relative to the control (100%), Base Octadecanoyl-L-carnitine hydrochloride: 99%

## CC(C)Cn1c(=O)n(C)c(=O)c2[nH]cnc21 [3-Isobutyl-1-methylxanthine]
  accumulated triglyceride amount relative to the control (100%), Base Hexadecanoyl-L-carnitine hydrochloride: 50%
  accumulated triglyceride amount relative to the control (100%), Base Octadecanoyl-L-carnitine hydrochloride: 57%

## O=C1O[C@H]([C@@H](O)CO)C(O)=C1O[C@H]1O[C@H](CO)[C@@H](O)[C@H](O)[C@H]1O [Ascorbic acid-2-glucoside]
  accumulated triglyceride amount relative to the control (100%), Base Hexadecanoyl-L-carnitine hydrochloride: 99%
  accumulated triglyceride amount relative to the control (100%), Base Octadecanoyl-L-carnitine hydrochloride: 102%

## O=C1O[C@H]([C@@H](O)CO)C(O)=C1OP(=O)([O-])[O-].[Mg+2] [Ascorbic acid-2-phosphate magnesium salt]
  accumulated triglyceride amount relative to the control (100%), Base Hexadecanoyl-L-carnitine hydrochloride: 98%
  accumulated triglyceride amount relative to the control (100%), Base Octadecanoyl-L-carnitine hydrochloride: 97%

## CCCCCCCCCCCCCCCC(=O)OC[C@H](O)[C@H]1OC(=O)C(OP(=O)([O-])[O-])=C1[O-].[Na+].[Na+].[Na+] [Ascorbic acid-2-phosphoric acid-6-palmitate sodium salt]
  accumulated triglyceride amount relative to the control (100%), Base Hexadecanoyl-L-carnitine hydrochloride: 96%
  accumulated triglyceride amount relative to the control (100%), Base Octadecanoyl-L-carnitine hydrochloride: 96%

## OCC(O)CO [Glycerol]
  accumulated triglyceride amount relative to the control (100%), Base Hexadecanoyl-L-carnitine hydrochloride: 118%
  accumulated triglyceride amount relative to the control (100%), Base Octadecanoyl-L-carnitine hydrochloride: 113%

## CCCCCCCCCCCCCCCC(=O)OC(CC(=O)O)(C(=O)O)C(O)C(=O)O (centres unmarked) [Hydroxycitric acid-2-palmitate]
  accumulated triglyceride amount relative to the control (100%), Base Hexadecanoyl-L-carnitine hydrochloride: 70%
  accumulated triglyceride amount relative to the control (100%), Base Octadecanoyl-L-carnitine hydrochloride: 72%

## CC(C)NCC(O)c1ccc(O)c(O)c1 (centres unmarked) [Isoproterenol hydrochloride]
  accumulated triglyceride amount relative to the control (100%), Base Hexadecanoyl-L-carnitine hydrochloride: 60%
  accumulated triglyceride amount relative to the control (100%), Base Octadecanoyl-L-carnitine hydrochloride: 64%

## C[N+](C)(C)C[C@H](O)CC(=O)[O-].Cl [L-carnitine hydrochloride]
  accumulated triglyceride amount relative to the control (100%), Base Hexadecanoyl-L-carnitine hydrochloride: 99%
  accumulated triglyceride amount relative to the control (100%), Base Octadecanoyl-L-carnitine hydrochloride: 102%

## CCCCCCCCCCCCCC(=O)O [Myristic acid]
  accumulated triglyceride amount relative to the control (100%), Base Hexadecanoyl-L-carnitine hydrochloride: 99%
  accumulated triglyceride amount relative to the control (100%), Base Octadecanoyl-L-carnitine hydrochloride: 98%

## CCCCCCCCCCCCCCCC(=O)O [Palmitic acid]
  accumulated triglyceride amount relative to the control (100%), Base Hexadecanoyl-L-carnitine hydrochloride: 102%
  accumulated triglyceride amount relative to the control (100%), Base Octadecanoyl-L-carnitine hydrochloride: 100%

## Cc1ccc(N(CC2=NCCN2)c2cccc(O)c2)cc1 [Phentolamine hydrochloride]
  accumulated triglyceride amount relative to the control (100%), Base Hexadecanoyl-L-carnitine hydrochloride: 68%
  accumulated triglyceride amount relative to the control (100%), Base Octadecanoyl-L-carnitine hydrochloride: 65%

## CCCCCCCCCCCCCCCCCC(=O)O [Stearic acid]
  accumulated triglyceride amount relative to the control (100%), Base Hexadecanoyl-L-carnitine hydrochloride: 101%
  accumulated triglyceride amount relative to the control (100%), Base Octadecanoyl-L-carnitine hydrochloride: 99%

## Cn1c(=O)c2[nH]cnc2n(C)c1=O [Theophylline]
  accumulated triglyceride amount relative to the control (100%), Base Hexadecanoyl-L-carnitine hydrochloride: 62%
  accumulated triglyceride amount relative to the control (100%), Base Octadecanoyl-L-carnitine hydrochloride: 58%

## Calcium hydroxycitrate
  accumulated triglyceride amount relative to the control (100%), Base Hexadecanoyl-L-carnitine hydrochloride: 89%
  accumulated triglyceride amount relative to the control (100%), Base Octadecanoyl-L-carnitine hydrochloride: 88%
